The structures appear in SMILES notation.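 Growth conditions: 96-well plates. Treatment: test compound, 48 hours, 5 concentrations. Analysis: linear interpolation between bracketing concentrations; unreached endpoints set to highest concentration. The concentration for 50% growth inhibition is given as GI50. At the TGI there is no net growth.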 Some results are limits rather than exact numbers.

Among the test systems are K-562 leukemia; UACC-62 melanoma; PC-3 prostate; SR leukemia; HCT-116 colon; UACC-257 melanoma; HL-60(TB) leukemia; NCI-H23 lung; NCI-H226 lung; DU-145 prostate.
Common to all, as to test: growth of human tumour cells (NCI), 48 h

For `Nc1cccc2c1CN(C1CCC(=O)NC1=O)C2=O` (stereo not given), the GI50 in the assay on K-562 leukemia, with UACC-62 melanoma, in the assay on PC-3 prostate, in the assay with SR leukemia, in the assay on HCT-116 colon and with UACC-257 melanoma was more than 100 µM throughout. For the same compound, the GI50 in the assay on HL-60(TB) leukemia, in the assay on NCI-H23 lung, in the assay with NCI-H226 lung and in the assay on DU-145 prostate was more than 100 µM throughout. The TGI with K-562 leukemia, in the assay with UACC-62 melanoma, with PC-3 prostate, with SR leukemia, with HCT-116 colon and in the assay on UACC-257 melanoma was more than 100 µM throughout. The TGI in the assay on HL-60(TB) leukemia, in the assay with NCI-H23 lung, in the assay on NCI-H226 lung and in the assay with DU-145 prostate was more than 100 µM in each case.

With `CCCCCCCCn1ccc2cc(NC(=O)Cn3cc(CN4CCC(C)CC4)nn3)ccc21`, the GI50 with K-562 leukemia is 1.61 µM; in the assay with UACC-62 melanoma it was 1.88 µM; in the assay with PC-3 prostate, 1.73 µM; in the assay with SR leukemia, 1.9 µM; with HCT-116 colon, 1.57 µM; in the assay on UACC-257 melanoma it was 1.7 µM. Also, the GI50 in the assay on HL-60(TB) leukemia is 1.77 µM; with NCI-H23 lung, 2.04 µM; in the assay on NCI-H226 lung, 1.75 µM; with DU-145 prostate, 1.94 µM. In addition, the TGI in the assay on K-562 leukemia is 3.51 µM; in the assay with UACC-62 melanoma, 3.37 µM; with PC-3 prostate, 3.68 µM; in the assay with SR leukemia, 5.24 µM; in the assay with HCT-116 colon it was 2.93 µM; with UACC-257 melanoma, 3.35 µM. In addition, the TGI in the assay on HL-60(TB) leukemia stood at 3.58 µM; in the assay with NCI-H23 lung, 4.34 µM; in the assay with NCI-H226 lung it was 3.83 µM; in the assay with DU-145 prostate, 3.9 µM.

Regarding `COc1ccc(C2c3cc4c(c(OC)c3CC3OCC(=O)C32)OCO4)cc1OC` (stereo not given), the GI50 in the assay with UACC-62 melanoma, in the assay with PC-3 prostate, with HCT-116 colon, in the assay on NCI-H23 lung, with NCI-H226 lung and in the assay on DU-145 prostate was less than 0.01 µM each time. Besides, the TGI with UACC-62 melanoma was more than 100 µM; in the assay with PC-3 prostate it was more than 100 µM; in the assay with SR leukemia, less than 0.01 µM; in the assay on HL-60(TB) leukemia it was less than 0.01 µM; in the assay with NCI-H226 lung, more than 100 µM.

As for `Cc1ccc(NC(C(=O)c2ccccc2)c2ccccc2)cc1` (stereo not given), the GI50 in the assay on K-562 leukemia was 3.07 µM; with UACC-62 melanoma, 3.93 µM; in the assay on PC-3 prostate, 2.78 µM; in the assay on SR leukemia, 4.26 µM; with HCT-116 colon it was 2.04 µM; in the assay with UACC-257 melanoma it was 2.8 µM. For the same compound, the GI50 in the assay on HL-60(TB) leukemia was 2.59 µM; in the assay on NCI-H23 lung it was 3.5 µM; in the assay with NCI-H226 lung, 18 µM; in the assay with DU-145 prostate it was 3.18 µM. Besides, the TGI in the assay with K-562 leukemia was more than 100 µM; in the assay on UACC-62 melanoma, more than 100 µM; in the assay on PC-3 prostate, 52.4 µM; in the assay on SR leukemia it was 52.9 µM; with HCT-116 colon it was 12.4 µM; in the assay with UACC-257 melanoma it was 8.42 µM. The TGI with HL-60(TB) leukemia is 6.57 µM; with NCI-H23 lung, more than 100 µM; with NCI-H226 lung, more than 100 µM; in the assay on DU-145 prostate, 15.4 µM.

Take `C=C1C(=O)O[C@H]2[C@H]1CC/C(COC(=O)c1cccc3ccccc13)=C\CC[C@@]1(C)O[C@@H]21`: the GI50 in the assay on K-562 leukemia is 1.98 µM; with UACC-62 melanoma, 1.47 µM; in the assay with PC-3 prostate, 1.57 µM; with SR leukemia it was 0.363 µM; in the assay with HCT-116 colon, 1.23 µM; with UACC-257 melanoma it was 1.46 µM. Besides, the GI50 in the assay with HL-60(TB) leukemia is 1.66 µM; with NCI-H23 lung it was 1.78 µM; with NCI-H226 lung, 1.29 µM; in the assay with DU-145 prostate, 1.5 µM. Besides, the TGI in the assay with K-562 leukemia was 14.7 µM; with UACC-62 melanoma, 2.94 µM; in the assay with PC-3 prostate it was 3.14 µM; with SR leukemia it was more than 100 µM; in the assay on HCT-116 colon, 2.53 µM; with UACC-257 melanoma, 2.83 µM. Besides, the TGI with HL-60(TB) leukemia stood at 7.56 µM; in the assay with NCI-H23 lung, 3.7 µM; with NCI-H226 lung, 2.83 µM; in the assay on DU-145 prostate, 2.86 µM.

Consider `CC(=O)Nc1c(I)c(C(=O)O)c(I)c(N(C)C(C)=O)c1I`, for which the GI50 with K-562 leukemia, in the assay on UACC-62 melanoma, with PC-3 prostate, with SR leukemia, in the assay on HCT-116 colon and with UACC-257 melanoma was more than 100 µM in each case. Also, the GI50 with HL-60(TB) leukemia, in the assay on NCI-H23 lung, in the assay on NCI-H226 lung and in the assay with DU-145 prostate was more than 100 µM throughout. Moreover, the TGI with K-562 leukemia, in the assay with UACC-62 melanoma, with PC-3 prostate, in the assay on SR leukemia, with HCT-116 colon and in the assay with UACC-257 melanoma was more than 100 µM throughout. Further, the TGI in the assay on HL-60(TB) leukemia, with NCI-H23 lung, in the assay on NCI-H226 lung and with DU-145 prostate was more than 100 µM each time.

For the compound `Cc1cc(Br)c2nsnc2c1[N+](=O)[O-]`, the GI50 with K-562 leukemia is 0.968 µM; with UACC-62 melanoma, 7.13 µM; with PC-3 prostate, 4.49 µM; in the assay with SR leukemia it was 0.706 µM; in the assay with HCT-116 colon, 1.77 µM; in the assay with UACC-257 melanoma, 3.87 µM. Moreover, the GI50 in the assay with HL-60(TB) leukemia is 1.86 µM; in the assay on NCI-H23 lung it was 1.9 µM; in the assay on NCI-H226 lung, 7.13 µM; with DU-145 prostate it was 1.66 µM. The TGI in the assay with UACC-62 melanoma was 20 µM; with PC-3 prostate it was 15.8 µM; in the assay on SR leukemia it was 3.23 µM; with HCT-116 colon, 3.63 µM; in the assay on UACC-257 melanoma it was 10.9 µM; in the assay on HL-60(TB) leukemia, 4.56 µM. Moreover, the TGI in the assay with NCI-H23 lung was 3.9 µM; in the assay on NCI-H226 lung it was 19.2 µM; in the assay on DU-145 prostate, 3.09 µM.

In the case of `O=C(O)CN(CC(=O)O)c1ccccc1`, the TGI with K-562 leukemia, in the assay with UACC-62 melanoma, with PC-3 prostate, with SR leukemia, with HCT-116 colon and in the assay on UACC-257 melanoma was more than 100 µM throughout. Also, the TGI with HL-60(TB) leukemia, with NCI-H23 lung, with NCI-H226 lung and in the assay with DU-145 prostate was more than 100 µM throughout.

The record behind these values is PubChem BioAssay (NCI).
